{"source": "patent US20250108038A1", "about": "(priority 2023, published 2025)", "key": {"[1]": {"test_system": "human 3D intestinal model (EpiIntestinal)", "experiment": "Intestinal permeability in the EpiIntestinal model", "type": "in vitro ADME", "details": "apical dose 100 μL of 10 mM stock solution, 120 min, 37° C.", "procedure": "FIG. 2A. Intestinal permeability of Compound I-19. […] Samples were taken from the basolateral compartment at 0, 15, 30, 60, and 120 min. and were analyzed by LCMSMS for presence of parent compound. Values represent mean+SEM of n=3 separate experiments.\nFIG. 2B. Intestinal permeability of Compound I-4 was determined in the human 3D intestinal model (Epilntestinal) from MatTek Corp. Tissues were dosed apically with 100 μL of 10 mM stock solution (4.25 μg) at 0 min. and the tissues were incubated with the test articles at 37° C. for a total of 120 min. Samples were taken from the basolateral compartment at 0, 15, 30, 60, and 120 min. and were analyzed by LCMSMS for presence of parent compound. Values represent mean+SEM of n=3 separate experiments.\nHuman 3D EpiIntestinal tissue model (MatTek, SMI-100, Lot #33921 Kit B) was used to model the intestine and was used for permeability studies. This model offers […] advantages over other permeability testing models such as Caco-2 cells. […]\nThe test articles (100 wL of 100 μM solution, or 4.25 ug) was applied to the apical surface of the EpiIntestinal model. […] Metabolic stability was determined by loss of parent compound using LCMSMS.\nAll data was compiled and organized in Excel. Mean, standard deviation, and standard deviation of the mean were calculated using Excel. […] The permeability coefficient (Papp) was calculated using the following equation: […]"}, "MDR1": {"target": "MDR1 (Homo sapiens, UniProt P08183)", "sequence (P08183 whole entry)": "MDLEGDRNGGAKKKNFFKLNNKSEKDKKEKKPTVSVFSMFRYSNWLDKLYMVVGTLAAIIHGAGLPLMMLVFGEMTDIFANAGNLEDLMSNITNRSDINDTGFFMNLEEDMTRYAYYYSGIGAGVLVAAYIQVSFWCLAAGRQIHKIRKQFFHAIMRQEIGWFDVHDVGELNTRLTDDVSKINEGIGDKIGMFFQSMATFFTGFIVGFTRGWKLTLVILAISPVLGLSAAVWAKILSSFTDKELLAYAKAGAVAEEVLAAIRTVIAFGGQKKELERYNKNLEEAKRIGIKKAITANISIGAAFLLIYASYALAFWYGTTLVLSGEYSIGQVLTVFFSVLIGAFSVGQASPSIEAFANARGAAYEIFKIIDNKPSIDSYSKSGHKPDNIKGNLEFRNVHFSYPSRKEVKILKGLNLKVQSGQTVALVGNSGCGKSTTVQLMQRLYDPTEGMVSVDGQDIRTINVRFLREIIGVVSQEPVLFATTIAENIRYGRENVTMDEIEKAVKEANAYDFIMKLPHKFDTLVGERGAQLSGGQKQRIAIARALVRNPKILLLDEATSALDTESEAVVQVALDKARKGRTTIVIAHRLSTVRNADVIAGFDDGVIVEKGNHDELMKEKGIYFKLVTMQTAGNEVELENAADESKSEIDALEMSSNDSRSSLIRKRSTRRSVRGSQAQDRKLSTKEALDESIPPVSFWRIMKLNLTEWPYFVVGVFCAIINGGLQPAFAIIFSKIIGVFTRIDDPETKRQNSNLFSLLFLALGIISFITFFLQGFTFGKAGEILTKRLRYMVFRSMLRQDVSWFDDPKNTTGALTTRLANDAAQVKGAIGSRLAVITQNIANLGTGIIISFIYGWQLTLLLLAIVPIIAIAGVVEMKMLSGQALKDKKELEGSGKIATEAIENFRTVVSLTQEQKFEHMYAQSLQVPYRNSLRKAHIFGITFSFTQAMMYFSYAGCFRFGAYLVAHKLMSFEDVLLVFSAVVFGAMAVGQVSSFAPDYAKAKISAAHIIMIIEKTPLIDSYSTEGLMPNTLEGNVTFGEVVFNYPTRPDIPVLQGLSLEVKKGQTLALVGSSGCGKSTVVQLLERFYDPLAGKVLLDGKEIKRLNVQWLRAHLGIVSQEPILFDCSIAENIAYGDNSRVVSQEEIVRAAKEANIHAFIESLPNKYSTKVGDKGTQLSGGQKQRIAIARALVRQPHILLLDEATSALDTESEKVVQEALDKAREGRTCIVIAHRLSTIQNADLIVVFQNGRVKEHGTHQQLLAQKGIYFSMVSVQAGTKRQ", "experiment": "Vesicular transport inhibition assay, MDR1 (N-methyl quinidine)", "details": "for Maximum % inhibition: MDR1, inside-out membrane vesicles, NMQ (1 μM), NIO: No inhibition observed", "procedure": "Vesicular transport assays were performed with inside-out membrane vesicles prepared from cells overexpressing human ABC (efflux) transporters. The transporters were expressed by SOLVO Biotechnology in mammalian (HEK293) cells. The mammalian cells were stably transfected with the ABC transporter of interest. The assays were conducted according to the actual SOLVO VT assay protocols (PR-ASY-VT-General Protocol for Vesicular Transport Inhibition Assays).\nThe membrane vesicle suspension was mixed with the ice-cold transport buffer, then the probe substrate solution was added. […] (for BCRP and MDR1). […] Reactions were quenched by the addition of 200 μL of ice-cold washing buffer and immediate filtration via glass fiber filters mounted to a 96-well plate (filter plate). The filters were washed (5×200 μL of ice-cold washing buffer), dried and the amount of substrate inside the filtered vesicles was determined by liquid scintillation counting.\nIncubation with AMP provided background activity values for all data points."}, "OAT1": {"target": "T1, OAT1 (Homo sapiens, UniProt Q4U2R8)", "T1 sequence (Q4U2R8 1-563)": "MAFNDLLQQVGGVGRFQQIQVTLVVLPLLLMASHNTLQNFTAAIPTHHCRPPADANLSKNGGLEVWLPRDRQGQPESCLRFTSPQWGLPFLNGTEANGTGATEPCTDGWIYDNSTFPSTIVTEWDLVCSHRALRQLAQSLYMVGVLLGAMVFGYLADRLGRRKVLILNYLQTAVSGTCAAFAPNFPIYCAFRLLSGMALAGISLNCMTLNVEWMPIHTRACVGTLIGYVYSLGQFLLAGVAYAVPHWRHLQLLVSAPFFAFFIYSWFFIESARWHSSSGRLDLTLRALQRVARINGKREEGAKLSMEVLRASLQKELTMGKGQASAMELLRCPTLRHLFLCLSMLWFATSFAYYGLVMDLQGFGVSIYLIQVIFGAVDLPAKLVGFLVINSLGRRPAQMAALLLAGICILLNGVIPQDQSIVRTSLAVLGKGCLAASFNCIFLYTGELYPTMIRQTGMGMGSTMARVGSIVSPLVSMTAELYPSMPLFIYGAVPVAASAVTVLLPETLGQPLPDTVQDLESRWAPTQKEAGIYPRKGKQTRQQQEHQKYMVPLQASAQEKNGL", "experiment": "Uptake transporter inhibition assay, OAT1 (tenofovir)", "details": "for Maximum % inhibition: OAT1, HEK293 cells, tenofovir (5 μM), NIO: no inhibition observed", "procedure": "Uptake experiments were performed using HEK293 cells stably expressing the respective uptake transporters. The assays were conducted according to the actual SOLVO uptake transporter assay protocols (PR-ASY-UPT-General Protocol for Uptake Transporter Inhibition Assays).\nCells were cultured at 37° C. in a humidified atmosphere containing 5% CO2 and were plated onto standard 96-well tissue culture plates.\nBefore the experiment, the medium was removed, and the cells were washed twice with 100 μL of pre-warmed (37° C.) assay buffer listed in Table 15. The cells were pre-incubated at 37° C. for 30 minutes in assay buffer containing the test article at appropriate concentrations (Table 16), appropriate solvents for solvent controls and the reference inhibitor for reference inhibitor wells. After the pre-incubation step solutions were removed. Uptake experiments were performed at 37° C. in 50 μL of assay buffer containing the probe substrate and the test article or solvent and controls.\nAfter the experiment, cells were washed twice with 100 μL of appropriate cold buffer and lysed with 150 μL scintillation cocktail. Radiolabeled probe substrate transport was determined by liquid scintillation counting.\nUptake of the probe substrate in control cells provided background activity values for all data points."}, "[2]": {"details": "2-concentration assay, up to 100 μM (Compound A up to 50 μM)"}, "[3]": {"details": "0.14 μM nominal, follow-up assay"}, "[4]": {"details": "1.24 μM nominal, follow-up assay"}, "[5]": {"details": "11.11 μM nominal, follow-up assay"}, "[6]": {"details": "33.33 μM nominal, follow-up assay"}, "[7]": {"details": "100.00 μM nominal, follow-up assay"}, "[8]": {"details": "10.00 μM nominal, 6.60 μM NSB corrected"}, "[9]": {"details": "100.00 μM nominal, 77.00 μM NSB corrected"}}, "note": "“Also recorded” adds a separate entry of the source."}
{"smiles": "COCCOC1(c2ccc(Cl)cc2)c2ccccc2C2=NCCN21", "note": "(stereo not drawn) [Compound I-4]", "values": [{"measurement": "Papp", "setting": "[1]", "value": "1.55e-07", "unit": "cm/s"}]}
{"smiles": "OC1(c2ccc(Cl)cc2)c2ccccc2C2=NCCN21", "note": "(stereo not drawn) [Compound A, 5-(4-chlorophenyl)-2,3-dihydroimidazo[1,2-b]isoindol-5-ol, reference compound]", "values": [{"measurement": "Relative ATP-dependent transport", "setting": "MDR1; 5.00 μM nominal", "value": "99.11 ± 9.38 % of control"}, {"measurement": "Relative ATP-dependent transport", "setting": "MDR1; 50.00 μM nominal", "value": "97.83 ± 5.19 % of control"}, {"measurement": "maximum inhibition of MDR1-mediated NMQ accumulation", "setting": "MDR1; [2]", "value": "did not inhibit; also recorded: not an in vitro inhibitor"}, {"measurement": "Maximum % inhibition", "setting": "MDR1", "value": "NIO"}, {"measurement": "inhibition at 5 μM", "setting": "MDR1; human, Relative inhibition, 5.00 μM nominal", "value": 1, "unit": "%"}, {"measurement": "inhibition at 50 μM", "setting": "MDR1; human, Relative inhibition, 50.00 μM nominal", "value": 2, "unit": "%"}, {"measurement": "Relative transporter specific accumulation", "setting": "OAT1; 3.00 μM nominal", "value": "99.68 ± 2.39 % of control"}, {"measurement": "Transporter specific accumulation", "setting": "OAT1; 3.00 μM nominal", "value": "2,392.67 ± 13.09 cpm"}, {"measurement": "Relative transporter specific accumulation", "setting": "OAT1; 30.00 μM nominal", "value": "88.39 ± 4.23 % of control"}, {"measurement": "Transporter specific accumulation", "setting": "OAT1; 30.00 μM nominal", "value": "2,121.67 ± 88.79 cpm"}, {"measurement": "Maximum % inhibition", "setting": "OAT1", "value": "NIO"}, {"measurement": "inhibition at 3 μM", "setting": "OAT1; human", "value": 0, "unit": "%"}, {"measurement": "inhibition at 30 μM", "setting": "OAT1; human", "value": 12, "unit": "%"}, {"measurement": "maximum inhibition of OAT1-mediated tenofovir accumulation", "setting": "OAT1; up to 100 μM (Compound A up to 30 μM)", "value": "did not inhibit; also recorded: not an in vitro inhibitor"}]}
{"smiles": "Clc1ccc(C2(OCC3OCCO3)c3ccccc3C3=NCCN32)cc1", "note": "(stereo not drawn) [Compound I-19]", "values": [{"measurement": "Papp", "setting": "[1]", "value": "1.06e-07", "unit": "cm/s"}, {"measurement": "ATP-dependent transport", "setting": "MDR1; [3]", "value": "3,812.00 ± 42.21 cpm"}, {"measurement": "Relative ATP-dependent transport", "setting": "MDR1; [3]", "value": "101.02 ± 3.23 % of control"}, {"measurement": "Relative inhibition", "setting": "MDR1; [3]", "value": "−1", "unit": "%"}, {"measurement": "ATP-dependent transport", "setting": "MDR1; [4]", "value": "3,744.33 ± 56.10 cpm"}, {"measurement": "Relative ATP-dependent transport", "setting": "MDR1; [4]", "value": "99.23 ± 3.33 % of control"}, {"measurement": "Relative inhibition", "setting": "MDR1; [4]", "value": 1, "unit": "%"}, {"measurement": "ATP-dependent transport", "setting": "MDR1; 10.00 μM nominal", "value": "1,845.67 ± 148.09 cpm"}, {"measurement": "Relative ATP-dependent transport", "setting": "MDR1; 10.00 μM nominal", "value": "51.19 ± 4.18 % of control"}, {"measurement": "Relative inhibition", "setting": "MDR1; 10.00 μM nominal", "value": 49, "unit": "%"}, {"measurement": "ATP-dependent transport", "setting": "MDR1; [5]", "value": "2,730.67 ± 83.62 cpm"}, {"measurement": "Relative ATP-dependent transport", "setting": "MDR1; [5]", "value": "72.36 ± 3.10 % of control"}, {"measurement": "Relative inhibition", "setting": "MDR1; [5]", "value": 28, "unit": "%"}, {"measurement": "ATP-dependent transport", "setting": "MDR1; [6]", "value": "1,363.00 ± 46.72 cpm"}, {"measurement": "Relative ATP-dependent transport", "setting": "MDR1; [6]", "value": "36.12 ± 1.64 % of control"}, {"measurement": "Relative inhibition", "setting": "MDR1; [6]", "value": 64, "unit": "%"}, {"measurement": "ATP-dependent transport", "setting": "MDR1; 100.00 μM nominal", "value": "2.84 ± 21.41", "unit": "cpm"}, {"measurement": "Relative ATP-dependent transport", "setting": "MDR1; 100.00 μM nominal", "value": "7.89 ± 0.61 % of control"}, {"measurement": "Relative inhibition", "setting": "MDR1; 100.00 μM nominal", "value": 92, "unit": "%"}, {"measurement": "ATP-dependent transport", "setting": "MDR1; [7]", "value": "407.00 ± 29.39", "unit": "cpm"}, {"measurement": "Relative ATP-dependent transport", "setting": "MDR1; [7]", "value": "10.79 ± 0.84 % of control"}, {"measurement": "Relative inhibition", "setting": "MDR1; [7]", "value": 89, "unit": "%"}, {"measurement": "maximum inhibition of MDR1-mediated NMQ accumulation", "setting": "MDR1; [2]", "value": 92, "unit": "%"}, {"measurement": "Maximum % inhibition", "setting": "MDR1", "value": 89, "unit": "%"}, {"measurement": "maximum inhibition of MDR1-mediated NMQ accumulation", "setting": "MDR1; follow-up assay", "value": 89, "unit": "%"}, {"measurement": "IC50", "setting": "MDR1; follow-up assay, bottom constrained to 0", "value": 21, "unit": "µM"}, {"measurement": "Relative inhibition", "setting": "OAT1; [8]", "value": 11, "unit": "%"}, {"measurement": "Relative transporter specific accumulation", "setting": "OAT1; [8]", "value": "89.39 ± 1.16 % of control"}, {"measurement": "Transporter specific accumulation", "setting": "OAT1; [8]", "value": "5,462.33 ± 30.98 cpm"}, {"measurement": "Relative inhibition", "setting": "OAT1; [9]", "value": 33, "unit": "%"}, {"measurement": "Relative transporter specific accumulation", "setting": "OAT1; [9]", "value": "66.61 ± 1.15 % of control"}, {"measurement": "Transporter specific accumulation", "setting": "OAT1; [9]", "value": "4,070.33 ± 51.74 cpm"}, {"measurement": "Maximum % inhibition", "setting": "OAT1", "value": 33, "unit": "%"}]}
